Among the data in PMC4624405 (Chemistry & biology, 2015) are Ki values, retold here.

Read-outs that look alike come from different tables or passages of the source.

Assay [1] has as its target T1, sterol C24-methyltransferase (TbSMT) (Trypanosoma brucei, UniProt Q4FKJ2).
T1 sequence (Q4FKJ2 1-359): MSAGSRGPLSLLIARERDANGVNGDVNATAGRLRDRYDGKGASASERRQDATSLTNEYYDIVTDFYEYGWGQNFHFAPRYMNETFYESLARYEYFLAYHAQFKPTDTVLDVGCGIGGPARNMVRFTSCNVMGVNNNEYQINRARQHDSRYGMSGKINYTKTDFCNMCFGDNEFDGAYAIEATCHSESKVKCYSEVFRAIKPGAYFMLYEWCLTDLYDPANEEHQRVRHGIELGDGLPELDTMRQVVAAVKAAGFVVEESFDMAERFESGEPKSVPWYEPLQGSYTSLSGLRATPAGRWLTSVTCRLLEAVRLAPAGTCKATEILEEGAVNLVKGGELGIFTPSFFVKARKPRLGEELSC
Type of assay: biochemical.

In assay [2] the target is T1, sterol C24-methyltransferase (TbSMT). The assay is described as follows: recombinant enzyme activity assay, Lineweaver-Burk inhibition. Type of assay: biochemical.

Broadly, the Ki is the dissociation constant of the complex between target and ligand, obtained from inhibition or displacement. `CC(=CCC[C@@H](C)[C@H]1CC[C@H]2C3=CC=C4C[C@@H](O)CC[C@]4(C)[C@H]3CC[C@]12C)CF` [26FCT, 26-fluorocholesta-5,7,24-trienol] registered a Ki in assay [1] of 75 µM. With `CC(=CCC[C@@H](C)[C@H]1CC[C@@]2(C)C3=C(CC[C@]12C)[C@@]1(C)CC[C@H](O)C(C)(C)[C@@H]1CC3)CF` [26FL, 26-fluorolanosterol], the Ki in assay [2] stood at 85 µM.
